Values after ≈ are worked out from the molar mass of the structure shown. Counter-ions that a name gives are not always drawn. Like-named read-outs stand apart in the source and are kept apart here.
Columns and labels:
[1] = tested on: Methicillin-resistant Staphylococcus aureus (S. aureus F-3095); test: Sensitivity Test 2: antibacterial activity (MIC) by micro-dilution method; type: cell-based
Protocol: (§1) Test compounds were initially dissolved in dimethylsulfoxide. Antibacterial activities (MICs) of the same compounds were determined by the micro-dilution method as recommended by the Japanese Society of Chemotherapy.
(§2) Staphylococcus aureus (S. aureus FDA209P) was used as the test organism. The bacterial cells were grown overnight at 35° C. on Mueller-Hinton agar (MHA) plates. The bacterial cells were then suspended in sterile saline and adjusted to the turbidity of a 0.5 McFarland standard. The inoculum was prepared by 10-fold dilution of this suspension. Approximately 0.005 mL aliquots of the inoculum prepared above were subsequently inoculated into Cation-adjusted Mueller-Hinton broth (CAMHB, 100 μL/well) including the test compounds for overnight incubation at 35° C.
Methicillin-resistant Staphylococcus aureus (S. aureus F-3095) was used as the test organism. Antibacterial activities (MICs) were determined in the same manner as in Test Example 1.

[2] = tested on: Staphylococcus aureus (S. aureus FDA209P); test: Sensitivity Test 1: antibacterial activity (MIC) by micro-dilution method; type: cell-based
Protocol: as §1, §2

S. aureus Smith = test: Infection Test: mice infected intraperitoneally with S. aureus Smith; type: in vivo; details: ICR mice, 5 per group; S. aureus Smith i.p.; 10 mg/kg subcutaneously once at 1 hour after infection; survivors recorded 3 days after infection
Protocol: S. aureus Smith which was grown overnight at 37° C. on Mueller-Hinton agar (MHA) plates were suspended to give a final concentration of 10^9 CFU/mL. The inoculum was prepared by diluting this suspension 10-fold in 1/15 mol/L phosphate buffer (pH 7) containing 5.6% mucin. ICR mice (4 to 4.5 weeks of age, male, 5 mice per group) were intraperitoneally administered with the inoculum (approximately 2×10^7 CFU per mice) to induce infection.
After dissolving the test compounds in 0.1 mol/L hydrochloric acid, 20% 2-hydroxypropyl-β-cyclodextrin (HP-β-CD) or a mixture of 20% HP-β-CD and 0.1 mol/L hydrochloric acid at a proportion of 1:1 was added to give a final concentration of 1 mg/mL. Each of the test compound solutions (10 mg/kg) was subcutaneously administered once to a group of mice at 1 hour after infection. The control group was administered with 10% HP-β-CD. The mice were observed daily and the number of surviving mice in each group was recorded 3 days after infection.

[3] = S. aureus FDA209P, CAMHB, overnight incubation at 35° C., lowest concentration with virtually no growth, read-out: MIC
[4] = Methicillin-resistant S. aureus F-3095, same manner as in Test Example 1, read-out: MIC

Structure (SMILES)	MIC ([2]; FDA209P) [µg/mL]	other results
COc1ccc2c(C)cc(=O)n(CCN3CCC(NCc4ccc5c(c4)OCCO5)CC3)c2c1 [Example 2, 1-(2-(4-((2,3-dihydro-1,4-benzodioxin-6-ylmethyl)amino)piperidin-1-yl)ethyl)-7-methoxy-4-methylquinolin-2(1H)-one]	–	MIC [1]: 0.0313 µg/mL (≈ 0.0675 µM); MIC [2, 3]: 0.0313 µg/mL (≈ 0.0675 µM); Number of surviving mice (S. aureus Smith): 4
COc1ccc2ccc(=O)n(CCN3CCC(NCc4cc5c(cn4)OCCO5)CC3)c2c1 [Example 64, 1-(2-(4-((2,3-dihydro(1,4)dioxino(2,3-c)pyridin-7-ylmethyl)amino)piperidin-1-yl)ethyl)-7-methoxyquinolin-2(1H)-one]	–	MIC [1, 4]: 0.0156 µg/mL (≈ 0.0346 µM); MIC [2, 3]: 0.0156 µg/mL (≈ 0.0346 µM)
COc1ccc2ncc(=O)n(CCN3CCC(NCc4ccc5c(c4)NC(=O)CS5)CC3)c2c1 [Example 91, 6-(((1-(2-(7-methoxy-2-oxoquinoxaline-1-(2H)-yl)ethyl)piperidin-4-yl)amino)methyl)-2H-1,4-benzothiazine-3(4H)-one]	–	MIC [1, 4]: 0.0313 µg/mL (≈ 0.0653 µM); MIC [2, 3]: 0.0313 µg/mL (≈ 0.0653 µM); Number of surviving mice (S. aureus Smith): 5
COc1ccc2ncc(=O)n(CCN3CCC(NCc4ccc5c(c4)OCCO5)CC3)c2c1 [Example 117, 1-(2-(4-((2,3-dihydro-1,4-benzodioxin-6-ylmethyl)amino)piperidin-1-yl)ethyl)-7-methoxyquinoxalin-2(1H)-one hydrochloride]	0.0313	MIC [1]: 0.0313 µg/mL; Number of surviving mice (S. aureus Smith): 5
COc1ccc2ncc(=O)n(CCN3CCC(NCc4ccc5c(n4)NC(=O)CS5)CC3)c2c1 [Example 179, 6-(((1-(2-(7-methoxy-2-oxoquinoxalin-1(2H)-yl)ethyl)piperidin-4-yl)amino)methyl)-2H-pyrido(3,2-b)(1,4)thiazin-3(4H)-one]	–	MIC [1, 4]: 0.0313 µg/mL (≈ 0.0651 µM); MIC [2, 3]: 0.0156 µg/mL (≈ 0.0325 µM); Number of surviving mice (S. aureus Smith): 5
CNC(=O)c1cc(OC)cc2c1ccc(=O)n2CCN1CCC(NCc2ccc3c(c2)OCCO3)CC1 [Example 186, 1-(2-(4-((2,3-dihydro-1,4-benzodioxin-6-ylmethyl)amino)piperidin-1-yl)ethyl)-7-methoxy-N-methyl-2-oxo-1,2-dihydroquinoline-5-carboxamide hydrochloride]	0.25	–
COc1cc(CO)c2ccc(=O)n(CCN3CCC(NCc4ccc5c(c4)OCCO5)CC3)c2c1 [Example 189, 1-(2-(4-((2,3-dihydro-1,4-benzodioxin-6-ylmethyl)amino)piperidin-1-yl)ethyl)-5-hydroxymethyl-7-methoxyquinolin-2(1H)-one hydrochloride]	0.0625	–
COc1cccc2ccc(=O)n(CCN3CCC(NCc4ccc5c(c4)OCCO5)CC3)c12 [Example 244, 1-(2-(4-((2,3-dihydro-1,4-benzodioxin-6-ylmethyl)amino)piperidin-1-yl)ethyl)-8-methoxyquinolin-2(1H)-one hydrochloride]	0.0625	–
CCc1ccc(CNC2CCN(CCn3c(=O)cc(C(=O)NC)c4ccc(OC)cc43)CC2)cc1 [Example 339, 1-(2-(4-(4-ethylbenzylamino)piperidin-1-yl)ethyl)-7-methoxy-N-methyl-2-oxo-1,2-dihydroquinoline-4-carboxamide hydrochloride]	0.0625	–
CNC(=O)c1cc(=O)n(CCN2CCC(NCc3cc4sccc4s3)CC2)c2cc(OC)ccc12 [Example 342, 7-methoxy-N-methyl-2-oxo-1-(2-(4-((thieno[3,2-b]thiophen-2-yl)methylamino)piperidin-1-yl)ethyl)-1,2-dihydroquinoline-4-carboxamide hydrochloride]	0.0313	–
CNC(=O)c1cc(=O)n(CCN2CCC(NCc3cc4ccccc4s3)CC2)c2cc(OC)ccc12 [Example 343, 1-(2-(4-((benzo[b]thiophen-2-yl)methylamino)piperidin-1-yl)ethyl)-7-methoxy-N-methyl-2-oxo-1,2-dihydroquinoline-4-carboxamide hydrochloride]	0.125	–
CNC(=O)c1cc(=O)n(CCN2CCC(NCC#Cc3ccccc3)CC2)c2cc(OC)ccc12 [Example 344, 7-methoxy-N-methyl-2-oxo-1-(2-(4-(3-phenyl-2-propyn-1-ylamino)piperidin-1-yl)ethyl)-1,2-dihydroquinoline-4-carboxamide hydrochloride]	0.125	–
O=c1cnc2ccc(F)cc2n1CCN1CCC(NCc2ccc3c(c2)OCCO3)CC1 [Example 346, (1-(2-(4-((2,3-dihydro-1,4-benzodioxin-6-ylmethyl)amino)piperidin-1-yl)ethyl)-7-fluoroquinoxalin-2(1H)-one hydrochloride]	–	MIC [2, 3]: 0.0156 µg/mL
CCc1ccc(CNC2CCN(CCn3c(=O)cnc4ccc(F)cc43)CC2)cc1 [Example 347, 1-(2-(4-(4-ethylbenzylamino)piperidin-1-yl)ethyl)-7-fluoroquinoxalin-2(1H)-one hydrochloride]	0.0156	–
O=c1cnc2ccc(F)cc2n1CCN1CCC(NCc2cc3ccccc3s2)CC1 [Example 349, 1-(2-(4-((benzo[b]thiophen-2-yl)methylamino)piperidin-1-yl)ethyl)-7-fluoroquinoxalin-2(1H)-one hydrochloride]	0.0156	–
O=c1cnc2ccc(F)cc2n1CCN1CCC(NCc2cc(-c3cccs3)on2)CC1 [Example 351, 7-fluoro-1-(2-(4-((5-(thiophen-2-yl)isoxazol-3-yl)methylamino)piperidin-1-yl)ethyl)quinoxalin-2(1H)-one hydrochloride]	0.0078	–
CCc1ccc(CNC2CCN(CCn3c(=O)cnc4ccc(OC)cc43)CC2)cc1 [Example 353, 1-(2-(4-(4-ethylbenzylamino)piperidin-1-yl)ethyl)-7-methoxyquinoxalin-2(1H)-one hydrochloride]	0.0156	–
COc1ccc2ncc(=O)n(CCN3CCC(NCc4ccc(C)c(F)c4)CC3)c2c1 [Example 354, 1-(2-(4-(3-fluoro-4-methylbenzylamino)piperidin-1-yl)ethyl)-7-methoxyquinoxalin-2(1H)-one hydrochloride]	0.0078	–
COc1ccc2ncc(=O)n(CCN3CCC(NCc4nc5c(cc4Cl)SCC(=O)N5)CC3)c2c1 [Example 355, 1-(2-(4-((7-chloro-3-oxo-3,4-dihydro-2H-pyrido[3,2-b][1,4]thiazin-6-yl)methylamino)piperidin-1-yl)ethyl)-7-methoxyquinoxalin-2(1H)-one hydrochloride]	0.0156	–
COc1ccc2ncc(=O)n(CCN3CCC(NCc4ccc5ccccc5c4)CC3)c2c1 [Example 356, 7-methoxy-1-(2-(4-((naphthalen-2-yl)methylamino)piperidin-1-yl)ethyl)quinoxalin-2(1H)-one hydrochloride]	0.0156	–
COc1ccc2ncc(=O)n(CCN3CCC(NCc4cc5ccccc5s4)CC3)c2c1 [Example 357, 1-(2-(4-((benzo[b]thiophen-2-yl)methylamino)piperidin-1-yl)ethyl)-7-methoxyquinoxalin-2(1H)-one hydrochloride]	0.0156	–
COc1ccc2ncc(=O)n(CCN3CCC(NCc4cc5sccc5s4)CC3)c2c1 [Example 360, 1-(2-(4-(((thieno[3,2-b]thiophen-2-yl)methylamino)piperidin-1-yl)ethyl)-7-methoxyquinoxalin-2(1H)-one hydrochloride]	–	MIC [2, 3]: 0.0078 µg/mL
O=c1cnc2ccc(Br)cc2n1CCN1CCC(NCc2ccc3c(c2)OCCO3)CC1 [Example 363, 1-(2-(4-((2,3-dihydro-1,4-benzodioxin-6-ylmethyl)amino)piperidin-1-yl)ethyl)-7-bromoquinoxalin-2(1H)-one hydrochloride]	0.0313	–
O=C1CSc2cc(Cl)c(CNC3CCN(CCn4c(=O)cnc5ccc(F)cc54)CC3)nc2N1 [Example 368, 1-(2-(4-((7-chloro-3-oxo-3,4-dihydro-2H-pyrido[3,2-b][1,4]thiazin-6-yl)methylamino)piperidin-1-yl)ethyl)-7-fluoroquinoxalin-2(1H)-one hydrochloride]	0.0156	–
COc1ccc2ncc(=O)n(CCN3CCC(NCc4ccc5c(c4)SCCS5)CC3)c2c1 [Example 370, 1-(2-(4-((2,3-dihydro-1,4-benzodithiin-6-ylmethyl)amino)piperidin-1-yl)ethyl)-7-methoxyquinoxalin-2(1H)-one hydrochloride]	0.0039	–
COc1ccc2ncc(=O)n(CCN3CCC(NCc4cc5c(cn4)OCCCO5)CC3)c2c1 [Example 375, hydrochloride]	0.0156	–
COc1ccc2ncc(=O)n(CCN3CCC(NCc4ccc5c(n4)NC(=O)CO5)CC3)c2c1 [Example 400, 7-methoxy-1-(2-(4-((3-oxo-3,4-dihydro-2H-pyrido[3,2-b][1,4]oxazin-6-yl)methylamino)piperidin-1-yl)ethyl)quinoxalin-2(1H)-one hydrochloride]	0.0156	–
